Results published in article PMC7563222, “Recognition of Dimeric Lewis X by Anti-Dimeric Le^x Antibody SH2” (Vaccines, 2020).

What was measured:
mAb SH2 [1] = assay: Competitive ELISA: inhibition of mAb SH2 binding to immobilized (DimLe^x)16-BSA conjugate 1; set-up: species or system mouse; settings: (DimLe^x)16-BSA 1 immobilized; SH2 serum dilution 1:500 (Figure 5)
Experimental: A MaxiSorp NUNC 96-well ELISA microtiter plate was coated with a dilution of the (DimLe^x)16-BSA conjugate 1 (100 μL per well, 5 μg/mL) in a 10 mM PBS solution at pH 7.1. The plate was covered with sealing tape and incubated at 4 °C overnight. The antigen solution was discarded, and the plate was washed (using ELx405 auto plate washer, 5 × 15 s) with a 10 mM PBS buffer at pH 7.3 containing 0.05% Tween 20. In 1.5 mL Eppendorf tubes, 175 μL dilutions of competitors (concentration ranging from 0.632 mg/mL to 2 mg/mL in 10 mM PBS-0.05% Tween 20) were incubated for 1 h at 23 °C (in the dark) with 175 μL of a solution of SH2 ascites (1:500 dilution in 10 mM PBS-0.05% Tween 20). At the same time, the plate was blocked with 0.05% skim milk in PBS (300 μL per well). After 1 h of incubation at 37 °C, the plate was washed with 10 mM PBS-0.05% Tween 20. Each well then received 100 μL of the competitor-mAb mixture. Three wells were used as the blank control in which the competitor-mAb mixture was not added, rather received 100 μL of 10 mM PBS-0.05% Tween 20. The plate was incubated for 3 h at 23 °C (in the dark). The plate was subsequently washed using the plate washer with PBS-0.05% Tween 20. A dilution of commercially available horseradish peroxidase labeled goat anti-mouse antibody (1:5000 in 10 mM PBS-0.05% Tween 20, 100 μL per well) was added to each well. After 1 h of incubation at 23 °C (in the dark), the plate was washed with 10 mM PBS-0.05% Tween 20. A solution of the chromogenic substrate TMB (100 μL per well) was added. After a 10 min incubation period at 23 °C (in the dark), 100 μL of 5% Phosphoric Acid stop solution was added to the wells to quench the reaction. The absorbance values were read at 450 nm employing a PowerWave XS plate reader. All samples were prepared in triplicate. The absorbance values were plotted as the percentage inhibition against an increasing concentration of competitor, calculated using wells containing no competitor as the reference point. The values were fitted to a 4-parameter logistics sigmoidal equation: y = y0 + a/[1 + (x/x0)^b] using Sigma Plot 10.0. The concentration of each analogue required for 50% inhibition (IC50) of Le^x-SH2 binding and the corresponding changes in free energy Δ(ΔG) of binding (kcal·mol^−1) using DimLe^xOPr 6 (Table 1) or Le^xOMe 7 (Table 2) as the reference were calculated.

mAb SH2 [2] = assay: Indirect titration ELISA of SH2 ascites against coated glycoconjugates; assay type: binding, mouse; settings: antigens coated at 10 μg/mL; 2 and 5 also at 20 µg/mL (not shown)
Experimental: MaxiSorp NUNC 96-well enzyme-linked immunosorbent assay (ELISA) microtiter plate (Thermo Fisher Scientific) was coated with a dilution of glycoconjugates 1–5 and BSA (100 μL per well, […]) in a 10 mM phosphate-buffered saline (PBS) solution at pH 7.1. The plate was covered with sealing tape and incubated at 4 °C overnight. The antigen solution was discarded, and the plate was washed (using ELx405 auto plate washer, 5 × 15 s) with a 10 mM PBS buffer at pH 7.3 containing 0.05% Tween 20. The plate was blocked with 0.05% skim milk in 10 mM PBS (300 μL per well) and incubated for 1 h at 37 °C. The plate was then washed with 10 mM PBS-0.05% Tween 20. A 1:100 dilution of SH2 ascites was prepared and 146 μL of the dilution was distributed in the wells corresponding to the primary dilution. All other wells received 100 μL of the 10 mM PBS-0.05% Tween 20 pH 7.3 buffer. In-plate serial dilutions were performed in which 46 μL of the primary dilution was pipetted downward along the rows. The well contents were mixed by rinsing the pipette tips (7×). Lastly, 46 μL of the mAb solution was removed and discarded from the wells, which received the final solution of mAb (final volume in all wells, 100 μL). The last row of the 96-well plate was used as the blank control. MAb SH2 ascites were not pipetted into these wells, rather 100 μL of 10 mM PBS-0.05% Tween 20 was added. The plate was incubated for 2 h at 23 °C (in the dark). The plate was subsequently washed using the plate washer with PBS-0.05% Tween 20. A dilution of commercially available horseradish peroxidase labeled goat anti-mouse antibody (Mandel Scientific) (1:5000 in 10 mM PBS-0.05% Tween 20, 100 μL per well) was added to each well. After 1 h of incubation at 23 °C (in the dark), the plate was washed with PBS-0.05% Tween 20. A solution of the chromogenic substrate 3,3′,5,5′-tetramethylbenzidine (TMB) (Mandel Scientific) (100 μL per well) was added. After a 10 min incubation period at 23 °C (in the dark), 100 μL of 5% Phosphoric Acid stop solution was added to the wells to quench the reaction. The absorbance values were read at 450 nm employing a PowerWave XS plate reader. All samples were prepared in triplicate. The absorbance values were plotted against an increasing serum dilution. The values were fitted to a 4-parameter logistics sigmoidal equation: y = y0 + a/[1 + (x/x0)^b] using Sigma Plot®® 10.0.

Substance | Inhibition of SH2 binding to (DimLe^x)16-BSA by glycoconjugates as soluble inhibitors (in words) (mAb SH2 [1]) | Binding of SH2 to coated antigen (titration, in words) (mAb SH2 [2])
(Le^x)10-BSA [compound 3] | did not | no binding
(Le^x)35-BSA [compound 4] | did not | weakly binds
